Test results published in the supplement of paper PMC10307832.

Assays:
Assay in all cases: relative viability (nuclei count vs DMSO), 5 days (fraction); higher = more cells survive
NVP-TAE684 + Tozasertib = compound: COc1cc(N2CCC(N3CCN(C)CC3)CC2)ccc1Nc1ncc(Cl)c(Nc2ccccc2S(=O)(=O)C(C)C)n1 [NVP-TAE684] + Cc1cc(Nc2cc(N3CCN(C)CC3)nc(Sc3ccc(NC(=O)C4CC4)cc3)n2)n[nH]1 [Tozasertib] (partner 0.1 µM)
How it was run: (§1)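 Dosing by pin tool came one day after lung cancer cell lines were seeded in 1536-well plates, using either one drug or a fixed anchor-drug dose plus five library-drug doses (not always all listed) in √10 steps. After 5 days, nuclei were counted on 4× images. Relative viability is treated-well nuclei count divided by vehicle-well nuclei count, and values are medians of duplicate plates.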

[1] = compound: C1=CC=C2C(=C1)N=C(S2)C(C#N)C3=NC(=NC=C3)NCCC4=CN=CC=C4 + C[C@]1(O)C[C@@H](c2nc(-c3ccc4ccc(-c5ccccc5)nc4c3)c3c(N)nccn32)C1 [Linsitinib] (partner 1 µM)
How it was run: as §1

Vandetanib + Linsitinib = compound: COc1cc2/c(=N/c3ccc(Br)cc3F)nc[nH]c2cc1OCC1CCN(C)CC1 [Vandetanib] + C[C@]1(O)C[C@@H](c2nc(-c3ccc4ccc(-c5ccccc5)nc4c3)c3c(N)nccn32)C1 [Linsitinib] (partner 1 µM)
How it was run: as §1

Vandetanib + Navitoclax = compound: COc1cc2/c(=N/c3ccc(Br)cc3F)nc[nH]c2cc1OCC1CCN(C)CC1 [Vandetanib] + CC1(C)CCC(c2ccc(Cl)cc2)=C(CN2CCN(c3ccc(C(=O)NS(=O)(=O)c4ccc(N[C@H](CCN5CCOCC5)CSc5ccccc5)c(S(=O)(=O)C(F)(F)F)c4)cc3)CC2)C1 [Navitoclax] (partner 0.5 µM)
How it was run: as §1

Cell Line	relative viability (NVP-TAE684 + Tozasertib; first compound 0.2 µM)	relative viability (NVP-TAE684 + Tozasertib; first compound 0.6325 µM)	relative viability (NVP-TAE684 + Tozasertib; first compound 2 µM)	relative viability ([1]; first compound 0.005 µM)	relative viability ([1]; first compound 0.01581 µM)	relative viability ([1]; first compound 0.05 µM)	relative viability ([1]; first compound 0.1581 µM)	relative viability ([1]; first compound 0.5 µM)	relative viability (Vandetanib + Linsitinib; first compound 0.02 µM)	relative viability (Vandetanib + Linsitinib; first compound 0.06325 µM)	relative viability (Vandetanib + Linsitinib; first compound 0.2 µM)	relative viability (Vandetanib + Linsitinib; first compound 0.6325 µM)	relative viability (Vandetanib + Linsitinib; first compound 2 µM)	relative viability (Vandetanib + Navitoclax; first compound 0.02 µM)	relative viability (Vandetanib + Navitoclax; first compound 0.06325 µM)	relative viability (Vandetanib + Navitoclax; first compound 0.2 µM)	relative viability (Vandetanib + Navitoclax; first compound 0.6325 µM)	relative viability (Vandetanib + Navitoclax; first compound 2 µM)
NCI-H522	0.53	0.692	0.509															
RERF-LC-KJ	0.469	0.488	0.268	1.01	0.877	0.853	0.861	0.781	0.922	0.859	0.939	0.835	0.763	0.952	0.746	0.835	1.06	0.605
A-427	0.175	0.187	0.144	1.05	1.12	1.11	1.17	1.13	1.05	1.05	1.11	1.04	1.12	0.931	0.952	0.992	0.935	0.874
EKVX	0.391	0.36	0.274	0.83	1.17	1.06	1.02	0.829	1.04	0.948	0.962	0.793	0.493	0.934	0.869	0.882	0.753	0.806
NCI-H460	0.671	0.498	0.4		1.15	1.02	1.17	0.502	0.733	0.758	0.0194	0.757	0.58	1.13	0.999	0.0215	1.25	1.09
HARA	0.0965	0.0875	0.0538	0.731	0.937	0.934	1.12	0.788	1.03	0.749	1.04	0.985	0.989	1.1	0.996	1.13	1.07	1.15
NCI-H1944	0.271	0.248	0.225	1.09	1.25	1.2	1.34	1.2	1.08	1.16	1.18	0.981	0.94	1	1.05	1.05	1.01	0.86
BEN	0.513	0.492	0.392	0.6	0.953	0.885	0.973	0.74	0.851	0.82	0.869	0.868	0.793	0.0787	0.0663	0.063	0.0857	0.0698
PC-14	0.627	0.531	0.461	0.914	1.07	0.972	1.08	0.896	0.988	0.911	1.03	0.617	0.249	1.02	0.953	1.07	0.504	0.307
NCI-H322M	0.42	0.414	0.294	0.88	1.03	0.899	0.987	0.803	0.832	0.841	0.924	0.846	0.894	1.14	1.1	1.24	1.04	1.15
NCI-H1651	0.931	0.695	0.576	0.695	0.846	1	1.18	0.921	1	0.87	0.956	0.873	0.806	0.927	1.11	1.08	1.07	0.928
LCLC-97TM1	0.184	0.224	0.0618	0.218	0.186	0.175	0.191	0.225	0.197	0.171	0.171	0.171	0.136	0.399	0.556	0.345	0.403	0.411
NCI-H727	0.495	0.532	0.32	0.328	0.321	0.228	0.396	0.298	0.216	0.336	0.347	0.283	0.271	0.45	0.468	0.528	0.449	0.287
NCI-H1623	0.442	0.427	0.393															
NCI-H1666	0.569	0.63	0.488	0.81	0.846	0.722	0.91	0.766	0.836	0.817	0.793	0.641	0.619	0.83	0.861	0.951	0.88	0.46
IA-LM					0.544	0.32	0.607	0.637	0.616	0.567	0.616	0.593	0.673	0.648	0.661	0.878	1.1	1.29
NCI-H1792					0.711	0.537	0.495	0.39	0.559	0.605	0.559	0.547	0.454	0.676	0.573	0.599	0.626	0.609
NCI-H1299				0.92	0.99	0.744	1.07	0.912	0.912	0.916	0.997	0.957	1	1	1.01	1.05	1.08	1.03
HCC-366	0.108	0.124	0.0322	0.56	0.709	0.693	0.834	0.558	0.644	0.488	0.584	0.636	0.526	1.09	1	1.06	1.06	1.05

Cell Line	relative viability (NVP-TAE684 + Tozasertib; first compound 0.2 µM)	relative viability (NVP-TAE684 + Tozasertib; first compound 0.6325 µM)	relative viability (NVP-TAE684 + Tozasertib; first compound 2 µM)	relative viability ([1]; first compound 0.005 µM)	relative viability ([1]; first compound 0.01581 µM)	relative viability ([1]; first compound 0.05 µM)	relative viability ([1]; first compound 0.1581 µM)	relative viability ([1]; first compound 0.5 µM)	relative viability (Vandetanib + Linsitinib; first compound 0.02 µM)	relative viability (Vandetanib + Linsitinib; first compound 0.06325 µM)	relative viability (Vandetanib + Linsitinib; first compound 0.2 µM)	relative viability (Vandetanib + Linsitinib; first compound 0.6325 µM)	relative viability (Vandetanib + Linsitinib; first compound 2 µM)	relative viability (Vandetanib + Navitoclax; first compound 0.02 µM)	relative viability (Vandetanib + Navitoclax; first compound 0.06325 µM)	relative viability (Vandetanib + Navitoclax; first compound 0.2 µM)	relative viability (Vandetanib + Navitoclax; first compound 0.6325 µM)	relative viability (Vandetanib + Navitoclax; first compound 2 µM)
NCI-H1437	0.433	0.396	0.311	0.789	1.23	1.09	1.11	0.692	0.994	0.971	1.04	1.01	0.966	1.03	1.06	1.16	1.08	1.08
EPLC-272H	0.25	0.21	0.103	1.01	1.3	1.12	1.27	1.12	1.21	0.971	1.11	1.13	1.18	1.06	1.03	1.14	1	1.09
NCI-H1703				0.547	0.711		0.718	0.676	0.543	0.73	1.14	0.637	0.535	1.15		1.27	0.575	0.256
NCI-H1650	0.317	0.385	0.165											1.15	1.02		1.1	1.13
Calu-6				0.884	0.982	0.89	1.07	0.914	0.939	0.861	0.911	0.975	0.876	0.891	0.761	0.973	0.895	0.734
NCI-H2170	0.735	0.632	0.543											0.621	0.618	0.565	0.567	0.502
ChaGo-K-1	0.214	0.206	0.16											0.939	0.998	0.942	1.24	0.489
NCI-H2342	0.572	0.485	0.297															
LCLC-103H	0.432	0.433	0.303	1.03	1.08	1.14	1.09	1.06	1.09	1	1.23	0.929	1.03					
NCI-H1563				1.27	1.32	1.16	1.2	1.18	1.24	1.06	1.18	1.19	1.11					
EBC-1				1.04	0.871	0.502	1.01	0.812	0.742	0.893	0.958	0.885	0.925	0.36	0.39	0.449	0.366	0.38
NCI-H358	0.0952	0.0896	0.0684	0.533	0.739	0.654	0.722	0.654	0.764	0.708	0.201	0.501	0.301					
SW 900	0.576	0.531	0.322															
NCI-H661	0.373	0.341	0.352	0.509	0.667	0.545	0.516	0.592	0.585	0.506	0.59	0.672	0.418					
A549				0.476	0.684	0.549	0.661	0.595	0.718	0.498	0.711	0.587	0.495	1.12	1.23	1.12	1.08	1.22
NCI-H1648	0.413	0.458	0.262															
ABC-1	0.17	0.147	0.127	0.979	0.887	1.01	0.962	0.601	1.03	0.805	1.02	0.849	0.598					
NCI-H650	0.669	0.69	0.498	0.838	0.578	0.803	1.26	0.984	0.872	0.839	0.677	0.792	0.254					
